Results on 18 compounds are retold here after patent publication US9364482B2, “Substituted benzofuran compounds and methods of use thereof for the treatment of viral diseases” (priority 2013, dated 2016).

The test system of test [1] is HCV replicon genotype 1a. In words: microbe, parasite or virus in culture. It is filed as cell-based, hepatitis C virus (HCV). Particulars: Hepatitis C virus, 96 h, read-out: 1a IC50 (nM).
Test [2] concerns HCV replicon genotype 1b. Kind of test: microbe, parasite or virus in culture. It is filed as cell-based, hepatitis C virus (HCV). The note with it: Hepatitis C virus, 96 h, read-out: 1b IC50 (nM).

The term IC50 denotes the concentration at which inhibition is half-maximal. Take `CNC(=O)c1c(-c2ccc(F)cc2)oc2ccc(-c3ccc4c(n3)C(=O)N(Cc3ccc(F)cc3)CC4)cc12` [Compound 37, 5-(7-(4-fluorobenzyl)-8-oxo-5,6,7,8-tetrahydro-1,7-naphthyridin-2-yl)-2-(4-fluorophenyl)-N-methylbenzofuran-3-carboxamide]: the results for the IC50 in test [1] and in test [2] were 77.3 nM and 11.4 nM, respectively.
For `CNC(=O)c1c(-c2ccc(F)cc2)oc2ccc(-c3ccc4c(n3)C(=O)N(C(C)(C)c3ccc(F)cc3)CO4)cc12` [Compound 33, 2-(4-fluorophenyl)-5-(3-(2-(4-fluorophenyl)propan-2-yl)-4-oxo-3,4-dihydro-2H-pyrido[2,3-e][1,3]oxazin-6-yl)-N-methylbenzofuran-3-carboxamide] the same measures were 708 nM and 1690 nM.
For `CNC(=O)c1c(-c2ccc(F)cc2)oc2cc(N(C)S(C)(=O)=O)c(-c3ccc4nc(C)n(Cc5ccc(F)cc5)c(=O)c4c3)cc12` [Compound 55, 5-[3-(4-fluorobenzyl)-2-methyl-4-oxo-3,4-dihydroquinazolin-6-yl]-2-(4-fluorophenyl)-N-methyl-6-[methyl(methylsulfonyl)amino]-1-benzofuran-3-carboxamide] the same measures were 1.93 nM and 2.42 nM.
`CNC(=O)c1c(-c2ccc(F)cc2)oc2cc(N(C)S(C)(=O)=O)c(-c3ccc4ncn(Cc5ccccc5)c(=O)c4c3)cc12` [Compound 49, 5-(3-benzyl-4-oxo-3,4-dihydroquinazolin-6-yl)-2-(4-fluorophenyl)-N-methyl-6-(N-methylmethylsulfonamido)benzofuran-3-carboxamide]: the half-maximal inhibitory concentration (IC50) in test [1] was determined as 6.25 nM; in test [2] it was 10.2 nM.
For `CNC(=O)c1c(-c2ccc(F)cc2)oc2cc(N(C)S(C)(=O)=O)c(-c3cnc4c(c3)C(=O)NC(C3CC3)N4)cc12` (stereo not drawn) [Compound 16] the same measures were 128 nM and 39.2 nM.
For `CNC(=O)c1c(-c2ccc(F)cc2)oc2cc(N(C)S(C)(=O)=O)c(-c3ccc4c(n3)C(=O)N(Cc3ccc(OC)cc3)CO4)cc12` [Compound 5] the same measures were 3.06 nM and 1.59 nM.
As to `CNC(=O)c1c(-c2ccc(F)cc2)oc2cc(N(C)S(C)(=O)=O)c(-c3ccc4nnn([C@H](C)c5ccc(F)cc5)c(=O)c4c3)cc12` [Compound 46, 2-(4-fluorophenyl)-5-{3-[(1R)-1-(4-fluorophenyl)ethyl]-4-oxo-3,4-dihydro-1,2,3-benzotriazin-6-yl}-N-methyl-6-[methyl(methylsulfonyl)amino]-1-benzofuran-3-carboxamide], the values for the IC50 in test [1] and in test [2] were 7.65 nM and 10.2 nM, respectively.
As to `CNC(=O)c1c(-c2ccc(F)cc2)oc2cc(N(C)S(C)(=O)=O)c(-c3ccc4c(n3)C(=O)N(c3cccc(F)c3)CO4)cc12` [Compound 3], the half-inhibitory concentration (IC50) in test [1] was found to be 4.83 nM; in test [2] it was 2.84 nM.
As to `CNC(=O)c1c(-c2ccc(F)cc2)oc2cc(N(C)S(C)(=O)=O)c(-c3cc4c(=O)n(Cc5ccc(F)cc5)nnc4cc3F)cc12` [Compound 70, 5-(7-fluoro-3-(4-fluorobenzyl)-4-oxo-3,4-dihydrobenzo[d][1,2,3]triazin-6-yl)-2-(4-fluorophenyl)-N-methyl-6-(N-methylmethylsulfonamido)benzofuran-3-carboxamide], the IC50 turned out to be 11.3 nM in test [1] and 2.61 nM in test [2].
For `CNC(=O)c1c(-c2ccc(F)cc2)oc2cc(N(C)S(C)(=O)=O)c(-c3ccc4nnn([C@@H](COC)c5ccc(F)cc5)c(=O)c4c3)cc12` [Compound 41, 2-(4-fluorophenyl)-5-{3-[(1R)-1-(4-fluorophenyl)-2-methoxyethyl]-4-oxo-3,4-dihydro-1,2,3-benzotriazin-6-yl}-N-methyl-6-[methyl(methylsulfonyl)amino]-1-benzofuran-3-carboxamide] the same measures were 18.1 nM and 16.2 nM.
Regarding `CNC(=O)c1c(-c2ccc(F)cc2)oc2cc(N(C)S(C)(=O)=O)c(-c3cc(OC)c4nnn(Cc5ccc(F)cc5)c(=O)c4c3)cc12` [Compound 71, 5-[3-(4-fluorobenzyl)-8-methoxy-4-oxo-3,4-dihydro-1,2,3-benzotriazin-6-yl]-2-(4-fluorophenyl)-N-methyl-6-[methyl(methylsulfonyl)amino]-1-benzofuran-3-carboxamide], the IC50 in test [1] is 3.49 nM; in test [2] it was 0.782 nM.
As for `CNC(=O)c1c(-c2ccc(F)cc2)oc2cc(N(C)S(C)(=O)=O)c(-c3ccc4nc(COC)n(Cc5ccc(F)cc5)c(=O)c4c3)cc12` [Compound 53, 5-(3-(4-fluorobenzyl)-2-(methoxymethyl)-4-oxo-3,4-dihydroquinazolin-6-yl)-2-(4-fluorophenyl)-N-methyl-6-(N-methylmethylsulfonamido)benzofuran-3-carboxamide], the half-maximal inhibitory concentration (IC50) in test [1] came out at 2.57 nM; in test [2], 2.45 nM.
The like results for `CNC(=O)c1c(-c2ccc(F)cc2)oc2cc(N(C)S(C)(=O)=O)c(-c3ccc4ncn([C@H](C)c5ccc(F)cc5)c(=O)c4c3)cc12` [Compound 50, 2-(4-fluorophenyl)-5-{3-[(1R)-1-(4-fluorophenyl)ethyl]-4-oxo-3,4-dihydroquinazolin-6-yl}-N-methyl-6-[methyl(methylsulfonyl)amino]-1-benzofuran-3-carboxamide] were, in that order, 3.18 nM and 4.23 nM.
For `CNC(=O)c1c(-c2ccc(F)cc2)oc2cc(N(C)S(C)(=O)=O)c(-c3ccc4c(n3)C(=O)N(Cc3ccc(F)cn3)CO4)cc12` [Compound 11, 2-(4-fluorophenyl)-5-(3-((5-fluoropyridin-2-yl)methyl)-4-oxo-3,4-dihydro-2H-pyrido[2,3-e][1,3]oxazin-6-yl)-N-methyl-6-(N-methylmethylsulfonamido)benzofuran-3-carboxamide] the same measures were 15.3 nM and 7.68 nM.
`CNC(=O)c1c(-c2ccc(F)cc2)oc2ccc(-c3ccc4c(n3)C(=O)N(Cc3ccc(F)cc3)CO4)cc12` [Compound 34, 5-(3-(4-fluorobenzyl)-4-oxo-3,4-dihydro-2H-pyrido[2,3-e][1,3]oxazin-6-yl)-2-(4-fluorophenyl)-N-methylbenzofuran-3-carboxamide]: the concentration for half-maximal inhibition (IC50) worked out at 8930 nM in test [1] and 10400 nM in test [2].
For `CNC(=O)c1c(-c2ccc(F)cc2)oc2cc(N(C)S(C)(=O)=O)c(-c3ccc4oc(=O)n(Cc5ccc(F)cc5)c(=O)c4n3)cc12` [Compound 14, 5-(3-(4-fluorobenzyl)-2,4-dioxo-3,4-dihydro-2H-pyrido[2,3-e][1,3]oxazin-6-yl)-2-(4-fluorophenyl)-N-methyl-6-(N-methylmethylsulfonamido)benzofuran-3-carboxamide] the same measures were 435 nM and 35.9 nM.
The like results for `CNC(=O)c1c(-c2ccc(F)cc2)oc2cc(N(C)S(C)(=O)=O)c(-c3ccc4nc(C)n([C@H](C)c5ccc(F)cc5)c(=O)c4c3)cc12` [Compound 57, (R)-2-(4-fluorophenyl)-5-(3-(1-(4-fluorophenyl)ethyl)-2-methyl-4-oxo-3,4-dihydroquinazolin-6-yl)-N-methyl-6-(N-methylmethylsulfonamido)benzofuran-3-carboxamide] were, in that order, 9.65 nM and 9.82 nM.
With `CNC(=O)c1c(-c2ccc(F)cc2)oc2cc(N(C)S(C)(=O)=O)c(-c3ccc4c(n3)C(=O)N(Cc3ccccc3F)CO4)cc12` [Compound 8], the values for the IC50 in test [1] and in test [2] were 5.87 nM and 2.62 nM, respectively.
